Reference: patent US8455475B2 (Gruenenthal GmbH, priority 2009, dated 2013)

Tests used:
[1] = target: T1, human B1R (bradykinin receptor 1) (Homo sapiens, UniProt P46663); experiment: FLIPR Ca2+ assay (Fluo-4) on CHO K1 cells stably transfected with the human B1R gene (hB1R cells): % inhibition at 10 μM / IC50, agonist Lys-Des-Arg9-bradykinin; format: cell-based; conditions: CHO-K1, human B1R
T1 construct: expressed in transfected cells; host or cells: CHO K1 cells
T1 sequence (P46663 1-353): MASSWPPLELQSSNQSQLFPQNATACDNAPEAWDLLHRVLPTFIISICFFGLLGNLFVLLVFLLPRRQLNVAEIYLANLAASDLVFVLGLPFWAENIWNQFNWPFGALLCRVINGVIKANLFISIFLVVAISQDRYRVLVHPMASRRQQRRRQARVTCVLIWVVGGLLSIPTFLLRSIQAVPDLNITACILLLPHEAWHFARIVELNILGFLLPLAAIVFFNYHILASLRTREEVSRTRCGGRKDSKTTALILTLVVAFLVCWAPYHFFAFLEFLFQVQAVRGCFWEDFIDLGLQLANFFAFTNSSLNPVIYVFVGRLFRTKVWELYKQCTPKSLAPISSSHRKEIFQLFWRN
Method in brief: (§1)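 Stable CHO K1 lines, Fluo-4 dye, probenecid-containing buffer. Cpd 10 μM or dose range, 10–20 min, then EC80 agonist (h: Lys-Des-Arg9-BK; r: Des-Arg9-BK). Readout peak FC; % inhibition vs max; IC50 from n=2–3, N≥2.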

[2] = target: T2, rat B1R (bradykinin receptor 1) (Rattus norvegicus, UniProt P97583); experiment: FLIPR Ca2+ assay (Fluo-4) on CHO K1 cells stably transfected with the B1R gene of the rat (rB1R cells): % inhibition at 10 μM / IC50, agonist Des-Arg9-bradykinin; format: cell-based; conditions: CHO-K1, rat B1R
T2 construct: expressed in transfected cells; host or cells: CHO K1 cells
T2 sequence (P97583 1-337): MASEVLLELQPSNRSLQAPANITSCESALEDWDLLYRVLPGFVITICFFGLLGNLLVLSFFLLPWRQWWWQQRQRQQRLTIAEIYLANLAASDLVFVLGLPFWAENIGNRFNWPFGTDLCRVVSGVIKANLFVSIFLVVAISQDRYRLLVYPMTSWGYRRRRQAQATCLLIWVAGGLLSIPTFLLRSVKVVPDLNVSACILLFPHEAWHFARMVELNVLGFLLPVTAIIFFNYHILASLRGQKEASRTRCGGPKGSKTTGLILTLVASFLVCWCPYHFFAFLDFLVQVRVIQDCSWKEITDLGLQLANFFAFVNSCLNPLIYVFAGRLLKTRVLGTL
Method in brief: as §1

CN(C(=O)c1cc(Cl)ccc1C(F)(F)F)C1CCc2ccc(C(=O)N3CCC4(CC3)CCN(c3ccncc3)CC4)cc21 (centres unmarked) [IND_CC-301, 5-Chloro-N-methyl-N-[6-(9-pyridin-4-yl-3,9-diazaspiro[5.5]undecane-3-carbonyl)-2,3-dihydro-1H-inden-1-yl]-2-(trifluoromethyl)-benzamide]
inhibition at 10 µM [1]: 94%
inhibition at 10 µM [2]: 107%

O=C(NC1CCc2ccc(C(=O)N3CCC4(CC3)CCN(c3ccncc3)CC4)cc21)c1cc(Cl)ccc1C(F)(F)F (centres unmarked) [IND_CC-302, 5-Chloro-N-[6-(9-pyridin-4-yl-3,9-diazaspiro[5.5]undecane-3-carbonyl)-2,3-dihydro-1H-inden-1-yl]-2-(trifluoromethyl)-benzamide]
inhibition at 10 µM [1]: 99%
inhibition at 10 µM [2]: 106%

O=C(NC1CCc2ccc(C(=O)N3CCC4(CC3)CCN(c3ccncc3)C4)cc21)c1cc(Cl)ccc1C(F)(F)F (centres unmarked) [IND_CC-303, 5-Chloro-N-[6-(2-pyridin-4-yl-2,8-diazaspiro[4.5]decane-8-carbonyl)-2,3-dihydro-1H-inden-1-yl]-2-(trifluoromethyl)-benzamide]
inhibition at 10 µM [1]: 92%
inhibition at 10 µM [2]: 106%

Cc1ccc(C(=O)N(C)C2CCc3ccc(C(=O)N4CCC5(CC4)CCN(c4ccncc4)CC5)cc32)c(F)c1 (centres unmarked) [IND_CC-304, 2-Fluoro-N,4-dimethyl-N-[6-(9-pyridin-4-yl-3,9-diazaspiro[5.5]undecane-3-carbonyl)-2,3-dihydro-1H-inden-1-yl]-benzamide]
inhibition at 10 µM [1]: 49%
inhibition at 10 µM [2]: 104%

Cc1ccc(C(=O)NC2CCc3ccc(C(=O)N4CCC5(CC4)CCN(c4ccncc4)CC5)cc32)c(F)c1 (centres unmarked) [IND_CC-305, 2-Fluoro-4-methyl-N-[6-(9-pyridin-4-yl-3,9-diazaspiro[5.5]undecane-3-carbonyl)-2,3-dihydro-1H-inden-1-yl]-benzamide]
inhibition at 10 µM [1]: 67%
inhibition at 10 µM [2]: 104%

Cc1cccc(C)c1C(=O)NC1CCc2ccc(C(=O)N3CCC4(CC3)CCN(c3ccc(C(F)(F)F)cc3)CC4)cc21 (centres unmarked) [IND_CC-307, 2,6-Dimethyl-N-[6-[9-[4-(trifluoromethyl)-phenyl]-3,9-diazaspiro[5.5]undecane-3-carbonyl]-2,3-dihydro-1H-inden-1-yl]-benzamide]
inhibition at 10 µM [1]: 14%
inhibition at 10 µM [2]: 103%

Cc1cccc(C)c1C(=O)NC1c2cc(C(=O)N3CCC4(CC3)CCN(c3ccncc3)CC4)ccc2CC1(C)C (centres unmarked) [IND_CC-308, N-[2,2-Dimethyl-6-(9-pyridin-4-yl-3,9-diazaspiro[5.5]undecane-3-carbonyl)-1,3-dihydro-inden-1-yl]-2,6-dimethyl-benzamide]
inhibition at 10 µM [1]: 97%
inhibition at 10 µM [2]: 106%

Cc1cccc(C)c1C(=O)NC1CC(C)(C)c2ccc(C(=O)N3CCC4(CC3)CCN(c3ccncc3)CC4)cc21 (centres unmarked) [IND_CC-309, N-[3,3-Dimethyl-6-(3-pyridin-4-yl-3,9-diazaspiro[5.5]undecane-9-carbonyl)-1,2-dihydro-inden-1-yl]-2,6-dimethyl-benzamide]
inhibition at 10 µM [1]: 97%
inhibition at 10 µM [2]: 104%

Cc1cccc(C)c1C(=O)NC1CCc2ccc(C(=O)N3CCC4(CCN(c5ccncc5)CC4)C3)cc21 (centres unmarked) [IND_CC-310, 2,6-Dimethyl-N-[6-(8-pyridin-4-yl-2,8-diazaspiro[4.5]decane-2-carbonyl)-2,3-dihydro-1H-inden-1-yl]-benzamide]
inhibition at 10 µM [1]: 100%
inhibition at 10 µM [2]: 104%

COc1ccc(C(=O)NC2CC(C)(C)c3ccc(C(=O)N4CCC5(CC4)CCN(c4ccncc4)CC5)cc32)c(F)c1 (centres unmarked) [IND_CC-312, N-[3,3-Dimethyl-6-(3-pyridin-4-yl-3,9-diazaspiro[5.5]undecane-9-carbonyl)-1,2-dihydro-inden-1-yl]-2-fluoro-4-methoxy-benzamide]
inhibition at 10 µM [1]: 44%
inhibition at 10 µM [2]: 102%

O=C(NC1CCc2ccc(C(=O)N3CCC4(CCN(Cc5ccc[nH]5)CC4)CC3)cc21)c1ccccc1Cl (centres unmarked) [IND_CC-507, 2-Chloro-N-[6-[9-(1H-pyrrol-2-yl-methyl)-3,9-diazaspiro[5.5]undecane-3-carbonyl]-2,3-dihydro-1H-inden-1-yl]-benzamide]
inhibition at 10 µM [1]: 2%
inhibition at 10 µM [2]: 100%

Cn1cncc1CN1CCC2(CC1)CCN(C(=O)c1ccc3c(c1)C(NC(=O)c1ccccc1Cl)CC3)CC2 (centres unmarked) [IND_CC-526, 2-Chloro-N-[6-[9-[(3-methyl-3H-imidazol-4-yl)-methyl]-3,9-diazaspiro[5.5]undecane-3-carbonyl]-2,3-dihydro-1H-inden-1-yl]-benzamide]
inhibition at 10 µM [1]: 25%
inhibition at 10 µM [2]: 87%

Cc1nc(CN2CCC3(CC2)CCN(C(=O)c2ccc4c(c2)C(NC(=O)c2ccccc2Cl)CC4)CC3)c[nH]1 (centres unmarked) [IND_CC-528, 2-Chloro-N-[6-[9-[(2-methyl-1H-imidazol-4-yl)-methyl]-3,9-diazaspiro[5.5]undecane-3-carbonyl]-2,3-dihydro-1H-inden-1-yl]-benzamide]
inhibition at 10 µM [1]: 24%
inhibition at 10 µM [2]: 102%

N#Cc1ccccc1CN1CCC2(CC1)CCN(C(=O)c1ccc3c(c1)C(NC(=O)c1ccccc1Cl)CC3)CC2 (centres unmarked) [IND_CC-535, 2-Chloro-N-[6-[9-[(2-cyano-phenyl)-methyl]-3,9-diazaspiro[5.5]undecane-3-carbonyl]-2,3-dihydro-1H-inden-1-yl]-benzamide]
inhibition at 10 µM [1]: 49%
inhibition at 10 µM [2]: 90%

O=C(NC1CCc2ccc(C(=O)N3CCC4(CCN(Cc5ccc(F)c(F)c5)CC4)C3)cc21)c1ccccc1Cl (centres unmarked) [IND_CC-542, 2-Chloro-N-[6-[8-[(3,4-difluoro-phenyl)-methyl]-2,8-diazaspiro[4.5]decane-2-carbonyl]-2,3-dihydro-1H-inden-1-yl]-benzamide]
inhibition at 10 µM [1]: 27%
inhibition at 10 µM [2]: 104%

Cc1nc[nH]c1CN1CCC2(CC1)CCN(C(=O)c1ccc3c(c1)C(NC(=O)c1ccccc1Cl)CC3)C2 (centres unmarked) [IND_CC-553, 2-Chloro-N-[6-[8-[(5-methyl-3H-imidazol-4-yl)-methyl]-2,8-diazaspiro[4.5]decane-2-carbonyl]-2,3-dihydro-1H-inden-1-yl]-benzamide]
inhibition at 10 µM [1]: -2%
inhibition at 10 µM [2]: 90%

O=C(NC1CCc2ccc(C(=O)N3CCC4(CCN(Cc5ccc(F)cc5Cl)CC4)C3)cc21)c1ccccc1Cl (centres unmarked) [IND_CC-556, 2-Chloro-N-[6-[8-[(2-chloro-4-fluoro-phenyl)-methyl]-2,8-diazaspiro[4.5]decane-2-carbonyl]-2,3-dihydro-1H-inden-1-yl]-benzamide]
inhibition at 10 µM [1]: 7%
inhibition at 10 µM [2]: 100%

N#Cc1cccc(CN2CCC3(CC2)CCN(C(=O)c2ccc4c(c2)C(NC(=O)c2ccccc2Cl)CC4)C3)c1 (centres unmarked) [IND_CC-562, 2-Chloro-N-[6-[8-[(3-cyano-phenyl)-methyl]-2,8-diazaspiro[4.5]decane-2-carbonyl]-2,3-dihydro-1H-inden-1-yl]-benzamide]
inhibition at 10 µM [1]: 27%
inhibition at 10 µM [2]: 104%

O=C(NC1CCc2ccc(C(=O)N3CCC4(CCN(Cc5ccc6nccnc6c5)CC4)C3)cc21)c1ccccc1Cl (centres unmarked) [IND_CC-568, 2-Chloro-N-[6-[8-(quinoxalin-6-yl-methyl)-2,8-diazaspiro[4.5]decane-2-carbonyl]-2,3-dihydro-1H-inden-1-yl]-benzamide]
inhibition at 10 µM [1]: 20%
inhibition at 10 µM [2]: 105%
